Test system: MV-4-11 cells
Experiment: Gene expression microarray analysis (Affymetrix PrimeView) and GSEA
Type: cell-based, human
Parameters: RFU PODN (11730768_x_at) / Fold change /veh PODN (11730768_x_at) / RFU LINC00158 (11744669_a_at) / Fold change /veh LINC00158 (11744669_a_at) / RFU DUSP10 (11751237_a_at) / Fold change /veh DUSP10 (11751237_a_at) / RFU ID3 (11757404_x_at) / Fold change /veh ID3 (11757404_x_at) / RFU PLEKHG5 (11737974_s_at) / Fold change /veh PLEKHG5 (11737974_s_at) / RFU LRRC4B (11730491_at) / Fold change /veh LRRC4B (11730491_at) / RFU GIMAP4 (11747438_a_at) / Fold change /veh GIMAP4 (11747438_a_at) / RFU KRT8 (11758183_x_at) / Fold change /veh KRT8 (11758183_x_at) / RFU CNN1 (11734310_a_at) / Fold change /veh CNN1 (11734310_a_at) / RFU VPS37D (11726825_at) / Fold change /veh VPS37D (11726825_at) / RFU C10orf10 (11716522_x_at) / Fold change /veh C10orf10 (11716522_x_at) / RFU KIR2DL2 /// KIR2DL4 /// KIR2DL5A /// KIR2DL5B /// KIR2DS1 /// KIR2DS2 /// KIR2DS3 /// KIR2DS4 /// KIR3DL3 /// KIR3DL3 /// KIR3DS1 (11738374_at) / Fold change /veh KIR2DL2 /// KIR2DL4 /// KIR2DL5A /// KIR2DL5B /// KIR2DS1 /// KIR2DS2 /// KIR2DS3 /// KIR2DS4 /// KIR3DL3 /// KIR3DL3 /// KIR3DS1 (11738374_at) / RFU C1QL1 (11718748_at) / Fold change /veh C1QL1 (11718748_at) / RFU TMPRSS4 (11747572_a_at) / Fold change /veh TMPRSS4 (11747572_a_at) / RFU HAMP (11756126_x_at) / Fold change /veh HAMP (11756126_x_at) / RFU RNFT2 (11725882_a_at) / Fold change /veh RNFT2 (11725882_a_at) / RFU NR4A2 (11747474_a_at) / Fold change /veh NR4A2 (11747474_a_at) / RFU ABCC12 (11746883_a_at) / Fold change /veh ABCC12 (11746883_a_at) / RFU TMEM136 (11760407_x_at) / Fold change /veh TMEM136 (11760407_x_at) / RFU CLDN22 /// WWC2 (11732394_at) / Fold change /veh CLDN22 /// WWC2 (11732394_at) / RFU HLA-DPB1 (11760878_x_at) / Fold change /veh HLA-DPB1 (11760878_x_at) / RFU SPINT1 (11716480_a_at) / Fold change /veh SPINT1 (11716480_a_at) / RFU GAP43 (11754022_s_at) / Fold change /veh GAP43 (11754022_s_at) / RFU A4GNT (11735810_at) / Fold change /veh A4GNT (11735810_at) / RFU PRB3 (11715151_x_at) / Fold change /veh PRB3 (11715151_x_at) / RFU TUBB4B (11761932_at) / Fold change /veh TUBB4B (11761932_at) / RFU CAPN14 (11732068_a_at) / Fold change /veh CAPN14 (11732068_a_at) / RFU TMCC2 (11721928_a_at) / Fold change /veh TMCC2 (11721928_a_at) / RFU IRGQ (11745062_a_at) / Fold change /veh IRGQ (11745062_a_at) / RFU FAM174B (11720279_a_at) / Fold change /veh FAM174B (11720279_a_at) / RFU TMPRSS4 (11748680_a_at) / Fold change /veh TMPRSS4 (11748680_a_at) / RFU FAM212B (11763350_a_at) / Fold change /veh FAM212B (11763350_a_at) / RFU PLEKHG5 (11743358_a_at) / Fold change /veh PLEKHG5 (11743358_a_at) / RFU ZSCAN30 (11745921_a_at) / Fold change /veh ZSCAN30 (11745921_a_at) / RFU CMKLR1 (11741424_a_at) / Fold change /veh CMKLR1 (11741424_a_at) / RFU LOC101060620 /// MAPK8IP1 (11723275_at) / Fold change /veh LOC101060620 /// MAPK8IP1 (11723275_at) / RFU SPTSSB (11747773_x_at) / Fold change /veh SPTSSB (11747773_x_at) / RFU PRSS12 (11739890_at) / Fold change /veh PRSS12 (11739890_at) / RFU BIN1 (11741810_x_at) / Fold change /veh BIN1 (11741810_x_at) / RFU WNT11 (11732464_a_at) / Fold change /veh WNT11 (11732464_a_at) / RFU C10orf10 (11716521_a_at) / Fold change /veh C10orf10 (11716521_a_at) / RFU C5orf56 (11738089_at) / Fold change /veh C5orf56 (11738089_at) / RFU CYB561 (11721691_x_at) / Fold change /veh CYB561 (11721691_x_at) / RFU ANKRD19P (11752326_a_at) / Fold change /veh ANKRD19P (11752326_a_at) / RFU OR2T12 /// OR2T33 /// OR2T8 (11738714_s_at) / Fold change /veh OR2T12 /// OR2T33 /// OR2T8 (11738714_s_at) / RFU VCAN (11748164_a_at) / Fold change /veh VCAN (11748164_a_at) / RFU JSRP1 (11732532_at) / Fold change /veh JSRP1 (11732532_at) / RFU KRTAP10-11 (11738290_x_at) / Fold change /veh KRTAP10-11 (11738290_x_at) / RFU MYO3A (11730013_a_at) / Fold change /veh MYO3A (11730013_a_at) / RFU EBF3 (11725865_a_at) / Fold change /veh EBF3 (11725865_a_at) / RFU CAMK2N1 (11719241_x_at) / Fold change /veh CAMK2N1 (11719241_x_at) / RFU C5orf56 (11738088_a_at) / Fold change /veh C5orf56 (11738088_a_at) / RFU OLFML3 (11715873_a_at) / Fold change /veh OLFML3 (11715873_a_at) / RFU LOC100653217 /// NTM (11731650_a_at) / Fold change /veh LOC100653217 /// NTM (11731650_a_at) / RFU MAPK11 (11762145_a_at) / Fold change /veh MAPK11 (11762145_a_at) / RFU FIZ1 (11724087_x_at) / Fold change /veh FIZ1 (11724087_x_at) / RFU OASL (11726364_x_at) / Fold change /veh OASL (11726364_x_at) / RFU SOX15 (11748057_x_at) / Fold change /veh SOX15 (11748057_x_at) / RFU CD79A (11719716_a_at) / Fold change /veh CD79A (11719716_a_at) / RFU HIST1H1D (11736915_at) / Fold change /veh HIST1H1D (11736915_at) / RFU CASKIN2 (11723855_a_at) / Fold change /veh CASKIN2 (11723855_a_at) / RFU LOC730098 (11760151_x_at) / Fold change /veh LOC730098 (11760151_x_at) / RFU OR4N2 (11742367_at) / Fold change /veh OR4N2 (11742367_at) / RFU PRRT2 (11749266_a_at) / Fold change /veh PRRT2 (11749266_a_at) / RFU SNX32 (11753110_a_at) / Fold change /veh SNX32 (11753110_a_at) / RFU CDHR5 (11726645_a_at) / Fold change /veh CDHR5 (11726645_a_at) / RFU RCAN1 (11760418_a_at) / Fold change /veh RCAN1 (11760418_a_at) / RFU FAM167A (11723789_a_at) / Fold change /veh FAM167A (11723789_a_at) / RFU FAM26E (11764081_at) / Fold change /veh FAM26E (11764081_at) / RFU ISYNA1 (11749810_s_at) / Fold change /veh ISYNA1 (11749810_s_at) / RFU ACY1 (11761880_at) / Fold change /veh ACY1 (11761880_at) / RFU 11764098_at / Fold change /veh 11764098_at / RFU SAMD14 (11745864_x_at) / Fold change /veh SAMD14 (11745864_x_at) / RFU NPB (11741838_a_at) / Fold change /veh NPB (11741838_a_at) / RFU TMPRSS6 (11731388_a_at) / Fold change /veh TMPRSS6 (11731388_a_at) / RFU KRTAP10-2 (11738614_at) / Fold change /veh KRTAP10-2 (11738614_at) / RFU ARHGAP8 /// PRR5-ARHGAP8 (11727945_x_at) / Fold change /veh ARHGAP8 /// PRR5-ARHGAP8 (11727945_x_at) / RFU KRTAP5-7 /// NADSYN1 (11734609_at) / Fold change /veh KRTAP5-7 /// NADSYN1 (11734609_at) / RFU RASL12 (11751679_a_at) / Fold change /veh RASL12 (11751679_a_at) / RFU CDKN2B (11736163_a_at) / Fold change /veh CDKN2B (11736163_a_at) / RFU PRF1 (11729649_at) / Fold change /veh PRF1 (11729649_at) / RFU, ZNF638 /// ZNF638-IT1 / Fold change vs veh, ZNF638 /// ZNF638-IT1 / RFU, PANK3 / Fold change vs veh, PANK3 / RFU, SH3YL1 / Fold change vs veh, SH3YL1 / RFU, ZEB2 / Fold change vs veh, ZEB2 / RFU, NRIP1 / Fold change vs veh, NRIP1 / RFU, PTTG1IP / Fold change vs veh, PTTG1IP / RFU, CAPN2 / Fold change vs veh, CAPN2 / RFU, MED14 / Fold change vs veh, MED14 / RFU, SNORA58 / Fold change vs veh, SNORA58 / RFU, C1orf63 / Fold change vs veh, C1orf63 / RFU, LRRFIP1 / Fold change vs veh, LRRFIP1 / RFU, NDUFAF7 / Fold change vs veh, NDUFAF7 / RFU, SLC12A2 / Fold change vs veh, SLC12A2 / RFU, IBTK / Fold change vs veh, IBTK / RFU, ESF1 / Fold change vs veh, ESF1 / Fold change vs veh, TMEM50B / RFU, TAOK1 / Fold change vs veh, TAOK1 / RFU, ACBD3 / Fold change vs veh, ACBD3 / RFU, TMA16 / Fold change vs veh, TMA16 / RFU, RWDD3 / Fold change vs veh, RWDD3 / RFU, BCAT1 / Fold change vs veh, BCAT1 / RFU, EDEM3 / Fold change vs veh, EDEM3 / RFU, TMEM33 / Fold change vs veh, TMEM33 / RFU, WDR75 / Fold change vs veh, WDR75 / RFU, AHCTF1 / Fold change vs veh, AHCTF1 / RFU, TFRC / Fold change vs veh, TFRC / RFU, ZDHHC17 / Fold change vs veh, ZDHHC17 / RFU, NOM1 / Fold change vs veh, NOM1 / RFU, ARL8B / Fold change vs veh, ARL8B / RFU, ZBTB11 / Fold change vs veh, ZBTB11 / RFU, TAMM41 / Fold change vs veh, TAMM41 / RFU, KIAA1704 /// LOC100996395 / Fold change vs veh, KIAA1704 /// LOC100996395 / RFU, ING1 / Fold change vs veh, ING1 / RFU, TRMT61B / Fold change vs veh, TRMT61B / RFU, FUBP3 / Fold change vs veh, FUBP3 / RFU, TP53 / Fold change vs veh, TP53 / RFU, TNKS2 / Fold change vs veh, TNKS2 / RFU, ZFP14 / Fold change vs veh, ZFP14 / RFU, ACTR2 / Fold change vs veh, ACTR2 / RFU, PPP3R1 / Fold change vs veh, PPP3R1 / RFU, PIK3R1 / Fold change vs veh, PIK3R1 / RFU, HNRNPA1 / Fold change vs veh, HNRNPA1 / RFU, RNF170 / Fold change vs veh, RNF170 / RFU, ZNF28 / Fold change vs veh, ZNF28 / RFU, RNGTT / Fold change vs veh, RNGTT / RFU, OGT / Fold change vs veh, OGT / RFU, BRD1 / Fold change vs veh, BRD1 / RFU, MARS / Fold change vs veh, MARS / RFU, ZNF655 / Fold change vs veh, ZNF655 / RFU, FAHD1 / Fold change vs veh, FAHD1 / RFU, BDP1 / Fold change vs veh, BDP1 / RFU, LRRCC1 / Fold change vs veh, LRRCC1 / RFU, ARID1A / Fold change vs veh, ARID1A / RFU, ZNF146 / Fold change vs veh, ZNF146 / RFU, ZNF330 / Fold change vs veh, ZNF330 / RFU, GPN3 / Fold change vs veh, GPN3 / RFU, C9orf123 / Fold change vs veh, C9orf123 / RFU, N4BP2L2 / Fold change vs veh, N4BP2L2 / RFU, ARFIP1 / Fold change vs veh, ARFIP1 / RFU, FAM179B / Fold change vs veh, FAM179B / RFU, BCL10 / Fold change vs veh, BCL10 / RFU, UHRF1BP1L / Fold change vs veh, UHRF1BP1L / RFU, BET1 / Fold change vs veh, BET1 / RFU, CNOT2 / Fold change vs veh, CNOT2 / RFU, ZNF268 / Fold change vs veh, ZNF268 / Fold change vs veh, ZNF507 / RFU, DGCR2 / Fold change vs veh, DGCR2 / RFU, WDSUB1 / Fold change vs veh, WDSUB1 / Fold change vs veh, HSP90B1 /// MIR3652 / RFU, ADSS / Fold change vs veh, ADSS / RFU, GK / Fold change vs veh, GK / RFU, ZNF148 / Fold change vs veh, ZNF148 / RFU, TAF9 / Fold change vs veh, TAF9 / RFU, SLC1A5 / Fold change vs veh, SLC1A5 / RFU, SLMO2 / Fold change vs veh, SLMO2 / RFU, ABCC4 / Fold change vs veh, ABCC4 / RFU, LOC101060439 /// RAP1B / Fold change vs veh, LOC101060439 /// RAP1B / RFU, RFX7 / Fold change vs veh, RFX7 / RFU, GTPBP10 / Fold change vs veh, GTPBP10 / RFU, CNEP1R1 / Fold change vs veh, CNEP1R1 / RFU, BIVM-ERCC5 /// ERCC5 / Fold change vs veh, BIVM-ERCC5 /// ERCC5 / RFU, ILF3 / Fold change vs veh, ILF3 / RFU 11762660_at / Fold change /veh 11762660_at / RFU VCAN (11757783_s_at) / Fold change /veh VCAN (11757783_s_at) / RFU DDX43 (11728927_at) / Fold change /veh DDX43 (11728927_at) / RFU KRT8 (11758188_x_at) / Fold change /veh KRT8 (11758188_x_at) / RFU NKD1 (11759106_at) / Fold change /veh NKD1 (11759106_at) / RFU SRD5A1 (11742802_a_at) / Fold change /veh SRD5A1 (11742802_a_at) / RFU TPSAB1 /// TPSB2 (11721975_s_at) / Fold change /veh TPSAB1 /// TPSB2 (11721975_s_at) / RFU GSTM3 (11746129_a_at) / Fold change /veh GSTM3 (11746129_a_at) / RFU IL23R (11737362_x_at) / Fold change /veh IL23R (11737362_x_at) / RFU TMEM51 (11727254_a_at) / Fold change /veh TMEM51 (11727254_a_at) / RFU PIWIL2 (11732686_x_at) / Fold change /veh PIWIL2 (11732686_x_at) / RFU ORM1 (11744905_x_at) / Fold change /veh ORM1 (11744905_x_at) / RFU CCDC152 (11743942_at) / Fold change /veh CCDC152 (11743942_at) / RFU ECM1 (11717891_a_at) / Fold change /veh ECM1 (11717891_a_at) / RFU IL23R (11748794_a_at) / Fold change /veh IL23R (11748794_a_at) / RFU TNFAIP8L3 (11732012_x_at) / Fold change /veh TNFAIP8L3 (11732012_x_at) / RFU MBOAT4 (11741988_at) / Fold change /veh MBOAT4 (11741988_at) / RFU 11764193_at / Fold change /veh 11764193_at / RFU TMEM53 (11763286_at) / Fold change /veh TMEM53 (11763286_at) / RFU MAGEB2 (11727129_at) / Fold change /veh MAGEB2 (11727129_at) / RFU TMEM200A (11744735_a_at) / Fold change /veh TMEM200A (11744735_a_at) / RFU CCDC152 (11751479_a_at) / Fold change /veh CCDC152 (11751479_a_at) / RFU FAM211A (11726209_a_at) / Fold change /veh FAM211A (11726209_a_at) / RFU RGS16 (11746705_a_at) / Fold change /veh RGS16 (11746705_a_at) / RFU VCAN (11755009_s_at) / Fold change /veh VCAN (11755009_s_at) / RFU RHOB (11743442_s_at) / Fold change /veh RHOB (11743442_s_at) / RFU RGS16 (11720943_a_at) / Fold change /veh RGS16 (11720943_a_at) / RFU RGS16 (11720944_at) / Fold change /veh RGS16 (11720944_at) / RFU, VPS4B / Fold change vs veh, VPS4B / RFU, CREB1 / Fold change vs veh, CREB1 / RFU, DNAJC13 / Fold change vs veh, DNAJC13 / RFU, GNAQ / Fold change vs veh, GNAQ / RFU, CDK5R1 / Fold change vs veh, CDK5R1 / RFU, ZRANB3 / Fold change vs veh, ZRANB3 / RFU, CUL4A / Fold change vs veh, CUL4A / RFU, CCNY / Fold change vs veh, CCNY / RFU, UFL1 / Fold change vs veh, UFL1 / RFU, COG3 / Fold change vs veh, COG3 / RFU, DIAPH2 / Fold change vs veh, DIAPH2 / RFU, SKA2 / Fold change vs veh, SKA2 / RFU, AFF3 / Fold change vs veh, AFF3 / RFU, LMF1 / Fold change vs veh, LMF1 / RFU, IPO11 / Fold change vs veh, IPO11 / RFU, DFFB / Fold change vs veh, DFFB / RFU, FOXP1 / Fold change vs veh, FOXP1 / RFU, CARD8 / Fold change vs veh, CARD8 / RFU, STRN3 / Fold change vs veh, STRN3 / RFU, ADK / Fold change vs veh, ADK / RFU, RASSF2 / Fold change vs veh, RASSF2 / RFU, WIPF1 / Fold change vs veh, WIPF1 / RFU, LARP1B / Fold change vs veh, LARP1B / RFU, RASA1 / Fold change vs veh, RASA1 / RFU, RB1 / Fold change vs veh, RB1 / RFU, PPFIA1 / Fold change vs veh, PPFIA1 / RFU, MAT2A / Fold change vs veh, MAT2A / RFU, CCT5 / Fold change vs veh, CCT5 / RFU, WDR92 / Fold change vs veh, WDR92 / RFU, CUX1 / Fold change vs veh, CUX1 / RFU, TTC7A / Fold change vs veh, TTC7A / RFU, TMEM135 / Fold change vs veh, TMEM135 / RFU, DEPTOR / Fold change vs veh, DEPTOR / RFU, CPM / Fold change vs veh, CPM / RFU, DNAJB6 / Fold change vs veh, DNAJB6 / RFU, CACNA2D3 / Fold change vs veh, CACNA2D3 / RFU, DTX4 / Fold change vs veh, DTX4 / RFU, TFCP2 / Fold change vs veh, TFCP2 / RFU, GMCL1 /// GMCL1P1 / Fold change vs veh, GMCL1 /// GMCL1P1 / RFU, AEBP2 / Fold change vs veh, AEBP2 / RFU, SNHG1 /// SNORD22 /// SNORD25 /// SNORD26 /// SNORD27 /// SNORD28 /// SNORD29 /// SNORD31 / Fold change vs veh, SNHG1 /// SNORD22 /// SNORD25 /// SNORD26 /// SNORD27 /// SNORD28 /// SNORD29 /// SNORD31 / Fold change (Aza/veh), C12orf56 (ProbeSet 11735607_a_at) / Fold change (ACY-1035/veh), C12orf56 (ProbeSet 11735607_a_at) / Fold change (Aza/veh), FGFR1OP (ProbeSet 11751329_s_at) / Fold change (ACY-1035/veh), FGFR1OP (ProbeSet 11751329_s_at) / Fold change (Aza/veh), VPS36 (ProbeSet 11739960_a_at) / Fold change (ACY-1035/veh), VPS36 (ProbeSet 11739960_a_at) / RFU SYPL1 (11715823_x_at) / Fold change /veh SYPL1 (11715823_x_at) / RFU IGFBP7 (11715501_s_at) / Fold change /veh IGFBP7 (11715501_s_at) / RFU REEP3 (11722064_at) / Fold change /veh REEP3 (11722064_at) / RFU IGLL1 (11728026_x_at) / Fold change /veh IGLL1 (11728026_x_at): dose or concentration left out as unconfirmed
Conditions: MV-4-11 cells, 48 hours

Nc1ccc(-c2cccs2)cc1NC(=O)c1ccc2c(c1)cc(C1CC1)n2CCN1CCOCC1 [ACY-1035]
Fold change /veh ECM1 (11717891_a_at): 0.95

From publication PMC5218480 (PLoS ONE, 2017)
